Source: patent US20130115522A1, “Manufacture of LiPO2F2” (SOLVAY SA, priority 2010, published 2013)

Test: Solubility of LiPO2F2 (and by-product salts) in organic solvents
Type: physicochemical
Description: If it is desired to isolate LiPO2F2 and Li2PO3F from any LiF, polar aprotic solvents can be applied. For example, dialkyl carbonates are suitable for this purpose. Other solvents are acetone, isopropanol, tetrahydrofurane, ethyl acetate, acetonitrile, and diethyl carbonate. If it is desired to isolate selectively LiPO2F2, propylene carbonate was identified as very suitable solvent because LiPO2F2 is soluble therein, and Li2PO3F and also LiF are not. Other very suitable solvents are diethyl carbonate, a mixture of dimethyl carbonate and propylene carbonate, acetonitrile, dimethoxyethane and acetone. The solubility of LiPO2F2 in these solvents at ambient temperature is compiled in the following table 1.
Under inert gas (nitrogen), pure LiPO2F2 was dissolved in propylene carbonate at about 20° C. such that a solution is obtained comprising about 2.75% by weight of LiPO2F2.
Under inert gas (nitrogen), pure LiPO2F2 was dissolved in the respective solvent or solvent mixture at about 20° C. such that a solution containing the amounts of dissolved LiPO2F2 given in the following table 3 were achieved. The data for solution No. 1 was taken from example 4, the data for solutions No. 2 to 6 of table 3 correspond to those of table 1.

Solubility in acetone (in words) (acetone): very low solubility
Solubility in dimethoxyethane (in words) (dimethoxyethane): at most in neglectable amounts
Solubility in dimethyl carbonate, propylene carbonate and mixtures thereof (in words) (dimethyl carbonate, propylene carbonate and mixtures thereof): at most in neglectable amounts
Solubility in propylene carbonate (in words) (propylene carbonate): are not
Compound: [F-].[Li+] [LiF]
